Data reported in ChEMBL document CHEMBL1133731, “Novel potent ligands for the central nicotinic acetylcholine receptor: synthesis, receptor binding, and 3D-QSAR analysis” (J Med Chem, 2000).

How the values were obtained:
[1] = molecular target: T1, Neuronal acetylcholine receptor; alpha4/beta2 (Rattus norvegicus, UniProt P09483+P12390); assay: In vitro binding affinity for Nicotinic acetylcholine receptor alpha4-beta2 in rat cerebral cortical membrane using [3H]cytisine as radioligand; format: cell membranes
T1 sequence (P09483 whole entry): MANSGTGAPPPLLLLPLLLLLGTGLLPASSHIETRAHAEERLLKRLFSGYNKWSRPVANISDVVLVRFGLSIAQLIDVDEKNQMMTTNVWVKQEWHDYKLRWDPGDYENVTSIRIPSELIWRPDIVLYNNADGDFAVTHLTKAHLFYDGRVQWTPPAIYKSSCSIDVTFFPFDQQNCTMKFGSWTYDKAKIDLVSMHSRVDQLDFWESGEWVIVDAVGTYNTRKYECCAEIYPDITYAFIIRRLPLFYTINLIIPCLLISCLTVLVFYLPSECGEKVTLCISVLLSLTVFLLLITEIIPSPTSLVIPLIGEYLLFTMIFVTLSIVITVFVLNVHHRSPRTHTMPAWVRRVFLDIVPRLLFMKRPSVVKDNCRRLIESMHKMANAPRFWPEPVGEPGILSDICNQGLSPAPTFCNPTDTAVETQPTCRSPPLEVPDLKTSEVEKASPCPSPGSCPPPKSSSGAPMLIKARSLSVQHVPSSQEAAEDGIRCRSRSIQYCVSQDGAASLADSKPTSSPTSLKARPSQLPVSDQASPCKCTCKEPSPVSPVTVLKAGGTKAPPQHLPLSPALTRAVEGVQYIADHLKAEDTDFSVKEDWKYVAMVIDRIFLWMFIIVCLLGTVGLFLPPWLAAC
T1 sequence (P12390 whole entry): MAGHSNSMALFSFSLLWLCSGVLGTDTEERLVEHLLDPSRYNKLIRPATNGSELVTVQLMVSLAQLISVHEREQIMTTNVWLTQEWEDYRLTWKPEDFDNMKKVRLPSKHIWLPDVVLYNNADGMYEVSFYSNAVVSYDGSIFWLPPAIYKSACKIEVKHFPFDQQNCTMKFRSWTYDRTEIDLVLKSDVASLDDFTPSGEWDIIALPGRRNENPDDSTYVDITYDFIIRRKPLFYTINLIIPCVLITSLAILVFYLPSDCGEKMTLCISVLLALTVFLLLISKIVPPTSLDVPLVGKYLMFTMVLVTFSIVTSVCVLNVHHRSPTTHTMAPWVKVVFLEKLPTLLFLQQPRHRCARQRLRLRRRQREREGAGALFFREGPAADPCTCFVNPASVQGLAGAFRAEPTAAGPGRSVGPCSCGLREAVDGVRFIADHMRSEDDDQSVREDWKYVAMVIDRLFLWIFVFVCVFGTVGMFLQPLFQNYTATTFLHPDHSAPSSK

[2] = molecular target: T1, Neuronal acetylcholine receptor; alpha4/beta2; assay: In vitro binding affinity for Nicotinic acetylcholine receptor alpha4-beta2 (alpha4 beta-2 subtype of nAChRs) in rat cerebral cortical membrane using [3H]-cytisine as radioligand; format: cell membranes

SMILES: c1cncc(OC2CCNC2)c1 (configuration not stated)
- IC50 ([1]; read-out: IC50): 100 nM

SMILES: c1ccc(Sc2cncc(N3CCCNCC3)c2)cc1
- IC50 ([1]; read-out: IC50): 4 nM

SMILES: c1cncc(OC[C@@H]2CCN2)c1
- IC50 [1]: 1.5 nM

SMILES: C1=C(c2cccnc2)CC2CCC1N2 (configuration not stated)
- IC50 ([1]; read-out: IC50): 6.7 nM

SMILES: c1ccc2nc(-c3cncc(N4CCCNCC4)c3)ccc2c1
- IC50 ([1]; read-out: IC50): 6.6 nM

SMILES: c1cncc(-c2cncc(N3CCCNCC3)c2)c1
- IC50 ([1]; read-out: IC50): 2.8 nM

SMILES: COc1cc(N2CCCNCC2)cnc1OC
- IC50 ([1]; read-out: IC50): 170 nM

SMILES: NC(=O)c1cncc(N2CCCNCC2)c1
- IC50 ([1]; read-out: IC50): 20 nM

SMILES: COc1cc(N2CCCNCC2)cnc1Cl
- IC50 [2]: 0.68 nM

SMILES: COc1ccc(N2CCCNCC2)cn1
- IC50 ([1]; read-out: IC50): 170 nM

SMILES: CCSc1ccc(N2CCCNCC2)cn1
- IC50 ([1]; read-out: IC50): 170 nM

SMILES: C=COc1cncc(N2CCCNCC2)c1
- IC50 [2]: 5 nM

SMILES: Nc1cccc(-c2cncc(N3CCCNCC3)c2)c1
- IC50 ([1]; read-out: IC50): 4 nM

SMILES: COc1cncc(N2CCCNCC2)c1
- IC50 ([1]; read-out: IC50): 1.9 nM

SMILES: Oc1cncc(N2CCCNCC2)c1
- IC50 ([1]; read-out: IC50): 2.4 nM

SMILES: COCCOc1cncc(N2CCCNCC2)c1
- IC50 ([1]; read-out: IC50): 2.4 nM

SMILES: CCOc1cc(N2CCCNCC2)cnc1Br
- IC50 [2]: 0.87 nM

SMILES: C1=CC(CSc2cncc(N3CCCNCC3)c2)C=C1
- IC50 ([1]; read-out: IC50): 8 nM

SMILES: OCCOc1cncc(N2CCCNCC2)c1
- IC50 ([1]; read-out: IC50): 1.8 nM

SMILES: CC(C)COc1cncc(N2CCCNCC2)c1
- IC50 ([1]; read-out: IC50): 2.2 nM

SMILES: Clc1cncc(OC2CCNC2)c1 (configuration not stated)
- IC50 ([1]; read-out: IC50): 220 nM

SMILES: c1cncc(OC2CCCNC2)c1 (configuration not stated)
- IC50 ([1]; read-out: IC50): 190 nM
